Patent US5728686A, “Alkylxanthine phosphonates and alkylxanthine phosphine oxides and their use as pharmaceuticals” (Hoechst Aktiengesellschaft, priority 1996, dated 1998)
Values after ≈ are worked out from the molar mass of the structure shown. Like-named read-outs stand apart in the source and are kept apart here.

How the values were obtained:
[1] = test system: isolated guinea pig lung strips, Platelet activating factor (PAF); test: antagonist of PAF-induced contraction of isolated guinea pig lung strips; assay type: cell-based; details: Cavia porcellus, read-out: Anticontractile action (lung), PAF: concentration range corresponding to the IC50 value
Description: 4. Activity as an antagonist of the contraction of isolated guinea pig lung strips
The test carried out is based on the same principle as the test indicated in the pharmacological test 3; however, lung strips are used here.
Preparation of the organ sections and experimental procedure:
The guinea pig is sacrificed under laughing gas anaesthesia. The entire pulmonary tract is exposed starting from the trachea. The lobes of the lung are cut in a circular fashion such that 3 mm wide strips are formed. The strips of the upper lobes are divided in order to obtain a total of six approximately equal size strips. The strips are suspended in the organ baths under a preload of 4 g. The nutrient solutions used are modified Krebs Henseleit solutions. When using "Platelet activating factor" (PAF) as an […], the composition of this solution corresponds to that for the agonist SP in "Test 3"; for the agonist LTD4 a Krebs Henseleit solution as in the case of the agonist KCl (Test 3) is used. 95% by volume O2, 5% by volume CO2 is used for bubbling through the bath; the bath temperature is 37° C. The experimental procedure is carried out in a therapeutically cumulative methodology, using the dosage graduations 1, 3, 6 and 10 μg/ml.
The experimental animals, organ bath, vehicles and manner of administration correspond to that stated in pharmacological test 3.
All numerical values are indicated in the unit μg/ml and relate to the concentration range of tested compound of the formula I (see example numbers in Table 1) which is necessary in order to cause a contraction which corresponds to the IC50 value.

[2] = test system: muscle group (gastrocnemius, plantaris and soleus) of the immobilized right rear extremity; test: rat muscle function test: direct electrical stimulation of muscle group after 3 weeks' immobilization; assay type: in vivo, male Wistar rats; details: oral, 1x per day for 3 weeks, as a rule 25 mg/kg, ≤-12% classified as active; for Force (force under the contraction curve, right/left difference): isometric stimulation, control difference approx. 25%; for Work (performed work, right/left difference): isotonic stimulation, control approx. -25%
Description: (§1) 1. Activity in the rat muscle function test
(§2) Male Wistar rats (body weight about 300 g) were kept under standard conditions with feed and water ad libitum. The right rear extremity was immobilized by fitting a kind of "shoe" to the animals under short-term anaesthesia. Two ergonomically fitted halves of the "shoe" were cast from a liquid plastic material which is also used for the production of dental prostheses, these were put onto the animal under brief anaesthesia and joined with the aid of a wire. The material is light but hard, so that the animals cannot gnaw the material, and the "shoe" can be opened at any time to examine the condition of the immobilized extremity. The two halves were moreover padded out with chamois leather in order to avoid compressions and possible injuries due to rubbing. The system also has the advantage that the angle of immobilization is standardized in all animals; this would not be possible with a plaster cast. The chosen angle allows the animals to take up a normal sitting position despite the "shoe" and also to carry the body weight using this extremity. Only complete stretching or bending of the leg is impossible.
(§3) After 3 weeks' immobilization of the right rear extremity and simultaneous oral administration of test preparations (1× per day using a stomach tube; as a rule 25 mg/kg of body weight, in carboxymethylcellulose, the animals were weighed and anaesthetized with pentobarbital (35 mg/kg i.p.). Functional parameters were measured during direct electrical stimulation of a muscle group (gastrocnemius, plantaris and soleus). This muscle group, merely called "muscle" in the following, was exposed at the ankle tendon and tied to a force transducer via the tendon.
To determine the contractile force, the muscles were stimulated isometrically, i.e. a preload of 0.5N was applied and the muscle was stimulated by means of a series of electrical pulses, which led to a maximum contraction, every 0.7 sec for 80 msec for a period of 15 min. […] The area under this contraction curve was evaluated and the difference in percent between the right atrophic and left normal muscle compared (force under the contraction curve as difference in percent (Δ%)). The difference in the control group is approximately 25%.
An isotonic muscle stimulation was used to determine the performed work of the muscle over time. In this type of measurement, the shortening of the muscle during contraction is used as a basis. To this end, a preload which corresponds to the body weight was applied to the muscles. A series of stimulation pulses (80 msec) were triggered every 3 sec and the muscle was stimulated for 15 min. The data (contraction force and distance travelled) were converted to the work performed in the unit J using an automated system. The difference in the work performed between the immobilized atrophic and the normal muscle in the control animals was approximately -25%.
Values which are positive indicate that the functional parameters of the immobilized muscle were better than those of the contralateral normal muscle.

soleus muscle = test: rat muscle function test: muscle weight (atrophy of immobilized extremity); assay type: in vivo, male Wistar rats; details: oral, 1x per day for 3 weeks, as a rule 25 mg/kg, difference ≤25% classified as an effect
Description: as §1, §2
In spite of this, a significant decrease in the skeletal muscle mass (atrophy) of the immobilized extremity occurred, to be precise up to -35% in comparison with the contralateral nonimmobilized rear extremity. As the soleus muscle was the most severely affected, the changes in muscle weight after administration of preparation shown in Table 1 relate to this muscle. A difference of ≤25% between the right immobilized and left non-immobilized rear extremity was classified as an effect.
as §3

[3] = lung strips, PAF, cumulative, 37° C.

SMILES | IC50 [1] [mg/L] | Force (force under the contraction curve, right/left difference) [2] | Work (performed work, right/left difference) [2] | Muscle weight (right/left difference) (soleus muscle) | IC50 [1, 3] [mg/L]
CCOP(=O)(CCCCn1c(=O)c2[nH]cnc2n(CC)c1=O)OCC [Example 37, Diethyl [4-(3-ethylxanthin-1-yl)butyl]phosphonate] | 1 to 3 (≈ 2.69 to 8.06 µM) |  |  |  | 
CCOP(=O)(CCCCCn1c(=O)c2c(ncn2CCC(C)C)n(C)c1=O)OCC [Example 56] |  | 0 Δ % | 0 Δ % |  | 
CCOCn1cnc2c1c(=O)n(CCCP(=O)(OCC)OCC)c(=O)n2C [Example 36, Diethyl [3-(7-ethoxymethyl-3-methylxanthin-1-yl)propyl]phosphonate] | 5 to 15 (≈ 12.4 to 37.3 µM) |  |  |  | 
CCOCn1cnc2c1c(=O)n(CCCCP(=O)(OCC)OCC)c(=O)n2C [Example 26, Diethyl [4-(7-ethoxymethyl-3-methylxanthin-1-yl)butyl]phosphonate] |  | -3 Δ % | -17 Δ % | -22 Δ % | 
CCOP(=O)(OCC)C(C)(C)CCCCn1c(=O)c2c(ncn2CCOC)n(C)c1=O [Example 22, Diethyl [5-(7-methoxyethyl-3-methylxanthin-1-yl)-1,1-dimethylpentyl]-phosphonate] |  | -3 Δ % | -13 Δ % | 0 Δ % | 
CCOP(=O)(CCCCn1c(=O)c2c(ncn2CCCCP(=O)(OCC)OCC)n(C)c1=O)OCC [Example 7, Diethyl 4-{7-[4-(diethoxyphosphoryl)butyl]-3-methylxanthin-1-yl}butyl-phosphonate] | 3 to 6 (≈ 5.45 to 10.9 µM) |  |  |  | 
CCOCn1cnc2c1c(=O)n(CCCCP(=O)(OCC)OCC)c(=O)n2Cc1ccccc1 [Example 53, Diethyl [4-(3-benzyl-7-ethoxymethylxanthin-1-yl)butyl]phosphonate] | 1 to 3 (≈ 2.03 to 6.09 µM) | -3 Δ % | +10 Δ % | 0 Δ % | 
CCOCn1c(=O)c2c(ncn2CCCCP(=O)(OCC)OCC)n(C)c1=O [Example 6, Diethyl [4-(1-ethoxymethyl-3-methylxanthin-7-yl)butyl]phosphonate] |  | -4 Δ % | -4 Δ % | 0 Δ % | 
CCCCn1c(=O)c2c(ncn2CCCCCP(=O)(OCC)OCC)n(CCCC)c1=O [Example 10, Diethyl [5-(1,3-dibutylxanthin-7-yl)pentyl]phosphonate] |  | +1 Δ % | -9 Δ % | -13 Δ % | 
CCOP(=O)(CCCCn1cnc2c1c(=O)n(CCCCC(C)(C)O)c(=O)n2C)OCC [Example 5] |  | +10 Δ % | +10 Δ % | 0 Δ % | 
Cn1c(=O)n(CCCCP(=O)(O)O)c(=O)c2[nH]cnc21 [Example 25, Diammonium [4-(3-methylxanthin-1-yl)butyl]phosphonate] |  | +7 Δ % | -12 Δ % |  | 5 to 15
CCCCn1cnc2c1c(=O)n(CP(C)(C)=O)c(=O)n2CCCC [Example 72, [1-(3,7-Dibutylxanthin-1-yl)methyl]dimethylphosphine Oxide] |  | -2 Δ % | +4 Δ % | -18 Δ % | 
CCOP(=O)(CCCCn1c(=O)c2c(ncn2CCOC)n(CC)c1=O)OCC [Example 45, Diethyl [4-(3-ethyl-7-methoxyethylxanthin-1-yl)butyl]phosphonate] | 1 to 3 (≈ 2.32 to 6.97 µM) |  |  |  | 
CCOP(=O)(CCCCn1cnc2c1c(=O)n(C)c(=O)n2C)OCC [Example 1, Diethyl [4-(1,3-dimethylxanthin-7-yl)butyl]phosphonate] | 3 to 9 (≈ 8.06 to 24.2 µM) |  | -8 Δ % |  | 
CCOCn1cnc2c1c(=O)n(CCCCP(=O)(O)O)c(=O)n2C.N.N [Example 28, Diammonium [4-(7-ethoxymethyl-3-methylxanthin-1-yl)butyl]phosphonate] |  |  |  |  | 3 to 9
CCCCn1c(=O)c2c(ncn2CP(C)(C)=O)n(CCCC)c1=O [Example 67, [1-(1,3-Dibutylxanthin-7-yl)methyl]dimethylphosphine Oxide] |  | -9 Δ % | -10 Δ % |  | 
CCOP(=O)(CCCCn1cnc2c1c(=O)[nH]c(=O)n2C)OCC [Example 3, Diethyl [4-(3-methylxanthin-7-yl)butyl]phosphonate] |  | 0 Δ % | 0 Δ % | 0 Δ % | 
CCCn1c(=O)c2c(ncn2CCCCP(=O)(OCC)OCC)n(C)c1=O [Example 13] | 6 to 10 (≈ 15 to 25 µM) | +5 Δ % | -3 Δ % | -24 Δ % | 
CP(C)(=O)Cn1c(=O)c2c(ncn2CC2CC2)n(-c2ccccc2)c1=O [Example 71, [1-(7-Cyclopropylmethyl-3-phenylxanthin-1-yl)methyl]dimethylphosphine Oxide] |  | +4 Δ % | +5 Δ % | 0 Δ % | 
CCOCn1cnc2c1c(=O)n(CCCCP(=O)(OCC)OCC)c(=O)n2CC [Example 54, Diethyl [4-(7-ethoxymethyl-3-ethylxanthin-1-yl)butyl]phosphonate] | 1 to 3 (≈ 2.32 to 6.97 µM) |  |  |  | 
CCOP(=O)(CCCn1cnc2c1c(=O)n(C)c(=O)n2C)OCC [Example 8, Diethyl [3-(1,3-dimethylxanthin-7-yl)propyl]phosphonate] | 5 to 10 (≈ 14 to 27.9 µM) | -11 Δ % | -7 Δ % |  | 
CCOP(=O)(CCCCn1c(=O)c2c(ncn2CCOC)n(C)c1=O)OCC [Example 31, Diethyl [4-(7-methoxyethyl-3-methylxanthin-1-yl)butyl]phosphonate] | 6 to 10 (≈ 14.4 to 24 µM) |  |  |  | 
